Key:
Assay type in all cases: physicochemical
[1] = Drying temperature conditions: transformation of the crystal form under vacuum drying; conditions: for Crystal form: vacuum 0.1˜1.0 Torr
Protocol: Form A prepared by Example 3 was treated with various drying temperatures and drying times under the vacuum condition of 0.1˜1.0 Torr, and the resulting trans-formation of the crystal form is represented in Table 1.

[2] = Stability test (HPLC content and decomposition products, 5° C. and accelerated condition over 6 months)
Protocol: The novel Forms A and B of Examples 3 and 11 of the present invention, and 50 mg of the authentic adefovir dipivosil (purity: 99.5%) were precisely weighed into a 50 mL volumetric flask and dissolved in diluent. After making up to the mark, they were used as sample solution and standard solution, respectively. Analysis was carried out according to the following conditions, so that the contents of the novel Forms A and B, and the amounts of decomposition products of adefovir dipivoxil formed were calculated by the peak areas. The changes in the contents of novel crystal forms and the amounts of decomposition products were measured under 5° C. and accelerated condition over 6 months.
Instrument: Waters HPLC model 2695
Column: Allech Mixed Mode Anion exchange C8, 7 um 100 A pore size, 250 mm×4.6 mm
Mobile phase mixing condition was operated as follows: For 19 min, mobile phase A was changed from 100% to 0%, and mobile phase B was changed from 0% to 100%. After elution with mobile phase B 100% till 36 min, the elution was changed from mobile phase A 0% to 100% till 46 min.
Mobile phase A: buffer/acetonitrile (70:30, v/v)
Mobile phase B: buffer/acetonitrile (50:50, v/v)
Buffer: 9.2 g of K2HPO4 and 47.2 g of KH2PO4 were dissolved in 2 L of purified water
Diluent: 3.4 g of KH2PO4 was dissolved in 1 L of purified water and adjusted to pH 3.0
Detector wave length: 260 nm

[3] = Dissolution test of formulations; conditions: for Dissolution rate (%): formulation per Example 1 of WO00/35460, average of 3
Protocol: Using the novel Form B prepared in Example 11 of the present invention and the Form I prepared in Example 1 of WO99/04774 as raw materials, each formulation was manufactured by the technique disclosed in Example 1 of WO00/35460. Dissolution rates were compared in 0.01N HCl solution, pH 1.2 buffer solution (NaCl 20 g+37% HCl 68˜70 mL+distilled water 9 L), pH 4.0 buffer solution (sodium acetate 7.38 g+acetic acid 25 mL+distilled water 9 L), pH 6.0 buffer solution (KH2PO4 68 g+NaOH+distilled water 10 L) and pH 7 distilled water. Experiments were repeated 3 times for each case, and the average values are represented in Table 4.

[4] = drying time 10 h, drying temperature 40° C.
[5] = Accelerated (25° C., 60% RH), 0 month
[6] = Accelerated (25° C., 60% RH), 1 month
[7] = Accelerated (25° C., 60% RH), 3 months
[8] = Accelerated (25° C., 60% RH), 6 months

CC(C)(C)C(=O)OCOP(=O)(COCCN1C=NC2C(N)=NC=NC21)OCOC(=O)C(C)(C)C (single isomer, unassigned) [Form A, 9-[2-[phosphonomethoxy]ethyl]adenine bis-pivaloyloxymethyl ester]
Transformation of the crystal form ([1]; dried at 35 to 45° C.): transformed from Form A to Form B | Crystal form ([1]; drying time 10 h, drying temperature 25° C.): Form A (2 hydrate) | Crystal form ([1]; drying time 10 h, drying temperature 35° C.): Form B | Crystal form [1, 4]: Form B | Crystal form ([1]; drying time 10 h, drying temperature 42° C.): Form B | Crystal form ([1]; drying time 10 h, drying temperature 45° C.): Form B | Crystal form ([1]; drying time 10 h, drying temperature 50° C.): Mixture of Form B + | Crystal form ([1]; drying time 48 h, drying temperature 25° C.): Form A (2 hydrate) | Transformation of the crystal form ([1]; vacuum dried at 25° C.): not transformed to other crystal forms | Content ([2]; 5° C., 0 month): 100.26% | Total amount of decomposition product ([2]; 5° C., 0 month): 0.27% | Content ([2]; 5° C., 1 month): 99.45% | Total amount of decomposition product ([2]; 5° C., 1 month): 0.25% | Content ([2]; 5° C., 3 months): 100.43% | Total amount of decomposition product ([2]; 5° C., 3 months): 0.25% | Content ([2]; 5° C., 6 months): 100.2% | Total amount of decomposition product ([2]; 5° C., 6 months): 0.32% | Content [2, 5]: 100.26% | Total amount of decomposition product [2, 5]: 0.27% | Content [2, 6]: 99.68% | Total amount of decomposition product [2, 6]: 0.38% | Content [2, 7]: 99.50% | Total amount of decomposition product [2, 7]: 0.43% | Content [2, 8]: 100.06% | Total amount of decomposition product [2, 8]: 0.60%

CC(C)(C)C(=O)OCOP(=O)(COCCN1C=NC2C(N)=NC=NC21)OCOC(=O)C(C)(C)C (single isomer, unassigned) [Form I, 9-[2-[phosphonomethoxy]ethyl]adenine bis-pivaloyloxymethyl ester, reference compound]
Transformation of the crystal form ([1]; dried at 35 to 45° C.): not transformed to Form B | Crystal form [1, 4]: Form I | Crystal form ([1]; drying time 20 h, drying temperature 40° C.): Form I | Dissolution rate (%) ([3]; 0.01N HCl, 5 min): 88.11% | Dissolution rate (%) ([3]; 0.01N HCl, 10 min): 93.32% | Dissolution rate (%) ([3]; 0.01N HCl, 15 min): 95.48% | Dissolution rate (%) ([3]; 0.01N HCl, 30 min): 98.17% | Dissolution rate (%) ([3]; distilled water (pH 7), 5 min): 70.92% | Dissolution rate (%) ([3]; distilled water (pH 7), 10 min): 83.19% | Dissolution rate (%) ([3]; distilled water (pH 7), 15 min): 88.58% | Dissolution rate (%) ([3]; distilled water (pH 7), 30 min): 94.85% | Dissolution rate (%) ([3]; pH 1.2 buffer, 5 min): 95.24% | Dissolution rate (%) ([3]; pH 1.2 buffer, 10 min): 100.90% | Dissolution rate (%) ([3]; pH 1.2 buffer, 15 min): 101.38% | Dissolution rate (%) ([3]; pH 1.2 buffer, 30 min): 101.61% | Dissolution rate (%) ([3]; pH 4.0 buffer, 5 min): 83.38% | Dissolution rate (%) ([3]; pH 4.0 buffer, 10 min): 88.07% | Dissolution rate (%) ([3]; pH 4.0 buffer, 15 min): 89.76% | Dissolution rate (%) ([3]; pH 4.0 buffer, 30 min): 93.00% | Dissolution rate (%) ([3]; pH 6.0 buffer, 5 min): 74.89% | Dissolution rate (%) ([3]; pH 6.0 buffer, 10 min): 89.88% | Dissolution rate (%) ([3]; pH 6.0 buffer, 15 min): 94.58% | Dissolution rate (%) ([3]; pH 6.0 buffer, 30 min): 97.38%

CC(C)(C)C(=O)OCOP(=O)(COCCN1C=NC2C(N)=NC=NC21)OCOC(=O)C(C)(C)C (single isomer, unassigned) [Form B, 9-[2-[phosphonomethoxy]ethyl]adenine bis-pivaloyloxymethyl ester]
Content ([2]; 5° C., 0 month): 100.48% | Total amount of decomposition product ([2]; 5° C., 0 month): 0.38% | Content ([2]; 5° C., 1 month): 100.34% | Total amount of decomposition product ([2]; 5° C., 1 month): 0.31% | Content ([2]; 5° C., 3 months): 99.18% | Total amount of decomposition product ([2]; 5° C., 3 months): 0.36% | Content ([2]; 5° C., 6 months): 99.74% | Total amount of decomposition product ([2]; 5° C., 6 months): 0.43% | Content [2, 5]: 100.48% | Total amount of decomposition product [2, 5]: 0.38% | Content [2, 6]: 98.85% | Total amount of decomposition product [2, 6]: 0.42% | Content [2, 7]: 100.25% | Total amount of decomposition product [2, 7]: 0.50% | Content [2, 8]: 99.32% | Total amount of decomposition product [2, 8]: 0.66% | Dissolution rate (%) ([3]; 0.01N HCl, 5 min): 85.25% | Dissolution rate (%) ([3]; 0.01N HCl, 10 min): 97.19% | Dissolution rate (%) ([3]; 0.01N HCl, 15 min): 99.65% | Dissolution rate (%) ([3]; 0.01N HCl, 30 min): 101.12% | Dissolution rate (%) ([3]; distilled water (pH 7), 5 min): 83.57% | Dissolution rate (%) ([3]; distilled water (pH 7), 10 min): 96.96% | Dissolution rate (%) ([3]; distilled water (pH 7), 15 min): 98.73% | Dissolution rate (%) ([3]; distilled water (pH 7), 30 min): 98.96% | Dissolution rate (%) ([3]; pH 1.2 buffer, 5 min): 93.77% | Dissolution rate (%) ([3]; pH 1.2 buffer, 10 min): 101.06% | Dissolution rate (%) ([3]; pH 1.2 buffer, 15 min): 102.03% | Dissolution rate (%) ([3]; pH 1.2 buffer, 30 min): 101.71% | Dissolution rate (%) ([3]; pH 4.0 buffer, 5 min): 87.18% | Dissolution rate (%) ([3]; pH 4.0 buffer, 10 min): 96.99% | Dissolution rate (%) ([3]; pH 4.0 buffer, 15 min): 98.21% | Dissolution rate (%) ([3]; pH 4.0 buffer, 30 min): 98.98% | Dissolution rate (%) ([3]; pH 6.0 buffer, 5 min): 88.62% | Dissolution rate (%) ([3]; pH 6.0 buffer, 10 min): 95.33% | Dissolution rate (%) ([3]; pH 6.0 buffer, 15 min): 98.01% | Dissolution rate (%) ([3]; pH 6.0 buffer, 30 min): 100.32% | Dissolution rate compared with the formulation utilizing the existing Form I ([3]; formulations, summary of Table 4): superior

— patent publication US9169257B2, “Crystal forms of adefovir dipivoxil and processes for preparing the same” (Daewoong Pharmaceutical Co., Ltd., priority 2009, dated 2015)
